Measured values published in patent publication US20220251163A1 (Sinopep-Allsino Biopharmaceutical Co., Ltd., priority 2019, published 2022).

What was measured:
[1] = molecular target: T1, mGLP-1R (Mus musculus, UniProt O35659); assay: GLP-1R agonist activity, cAMP in transfected HEK293 cells; assay type: cell-based; conditions: HEK293 cells transfected with GLP-1R, cAMP, 20 min incubation; read-out: mGLP-1R EC50
T1 construct: expressed in transfected cells; host or cells: HEK293
T1 sequence (O35659 22-463): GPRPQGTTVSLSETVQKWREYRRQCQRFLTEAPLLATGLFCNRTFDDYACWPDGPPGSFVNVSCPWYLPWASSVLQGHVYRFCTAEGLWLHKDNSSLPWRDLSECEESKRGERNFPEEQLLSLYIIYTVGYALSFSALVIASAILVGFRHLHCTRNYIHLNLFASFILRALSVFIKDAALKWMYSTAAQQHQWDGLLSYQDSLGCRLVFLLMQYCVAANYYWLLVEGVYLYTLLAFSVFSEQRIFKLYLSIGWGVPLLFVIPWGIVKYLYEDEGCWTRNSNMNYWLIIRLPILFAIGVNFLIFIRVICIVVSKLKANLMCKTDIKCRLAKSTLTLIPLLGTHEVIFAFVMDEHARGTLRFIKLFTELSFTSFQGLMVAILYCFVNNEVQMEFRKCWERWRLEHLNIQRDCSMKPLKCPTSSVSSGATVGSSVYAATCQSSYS
Description: HEK293 cells were co-transfected with cDNA encoding GLP-1R or GIPR. In a test for determining the compound, the cells were inoculated in a 96-well plate 2 h in advance, the polypeptide compound was dissolved with DMSO, and diluted to different multiples with a culture medium containing 0.1% bovine serum albumin and added to the co-transfected cells. After the cells were incubated for 20 min, fluorescence values were determined through microplate reader of an ELISA kit of the Cisbo Company, a standard curve was established to convert the fluorescence values into corresponding cAMP values, and the EC50 value of the compound was calculated through nonlinear regression of Graphpad Prism 5.0 software.

[2] = molecular target: T2, mGIPR (Mus musculus, UniProt Q0P543); assay: GIPR agonist activity, cAMP in transfected HEK293 cells; assay type: cell-based; conditions: HEK293 cells transfected with GIPR, cAMP, 20 min incubation; read-out: mGIPR EC50
T2 construct: expressed in transfected cells; host or cells: HEK293
T2 sequence (Q0P543 19-460): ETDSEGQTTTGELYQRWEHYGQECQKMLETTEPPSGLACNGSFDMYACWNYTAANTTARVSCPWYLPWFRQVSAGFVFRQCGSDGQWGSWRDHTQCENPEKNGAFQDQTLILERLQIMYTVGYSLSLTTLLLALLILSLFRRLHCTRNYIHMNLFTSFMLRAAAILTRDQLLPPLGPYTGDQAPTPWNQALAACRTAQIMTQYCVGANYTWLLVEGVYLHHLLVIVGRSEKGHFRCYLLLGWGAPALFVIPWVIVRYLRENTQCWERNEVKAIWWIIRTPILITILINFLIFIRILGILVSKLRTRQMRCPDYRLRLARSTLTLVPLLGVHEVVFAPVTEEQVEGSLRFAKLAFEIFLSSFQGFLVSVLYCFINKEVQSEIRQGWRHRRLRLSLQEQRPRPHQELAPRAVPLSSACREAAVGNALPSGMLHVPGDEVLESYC
Description: HEK293 cells were co-transfected with cDNA encoding GLP-1R or GIPR. In a test for determining the compound, the cells were inoculated in a 96-well plate 2 h in advance, the polypeptide compound was dissolved with DMSO, and diluted to different multiples with a culture medium containing 0.1% bovine serum albumin and added to the co-transfected cells.

CCCCCCCCCCCCCCCC(=O)N[C@@H](CCC(=O)NCCCC[C@H](NC(=O)[C@H](CCC(N)=O)NC(=O)[C@H](C)NC(=O)[C@@H](NC(=O)[C@H](CCCCN)NC(=O)[C@H](CC(=O)O)NC(=O)[C@H](CC(C)C)NC(=O)C(C)(C)NC(=O)[C@@H](NC(=O)[C@H](CO)NC(=O)[C@H](Cc1ccc(O)cc1)NC(=O)[C@H](CC(=O)O)NC(=O)[C@H](CO)NC(=O)[C@@H](NC(=O)[C@H](Cc1ccccc1)NC(=O)[C@@H](NC(=O)CNC(=O)[C@H](CCC(=O)O)NC(=O)C(C)(C)NC(=O)[C@@H](N)Cc1ccc(O)cc1)[C@@H](C)O)[C@@H](C)O)[C@@H](C)CC)[C@@H](C)CC)C(=O)N[C@@H](C)C(=O)N[C@@H](Cc1ccccc1)C(=O)N[C@H](C(=O)N[C@@H](CCC(N)=O)C(=O)N[C@@H](Cc1c[nH]c2ccccc12)C(=O)N[C@@H](CC(C)C)C(=O)N[C@H](C(=O)N[C@@H](C)C(=O)NCC(=O)NCC(=O)N1CCC[C@H]1C(=O)N[C@@H](CO)C(=O)N[C@@H](CO)C(=O)NCC(=O)N[C@@H](C)C(=O)N1CCC[C@H]1C(=O)N1CCC[C@H]1C(=O)N1CCC[C@H]1C(=O)N[C@@H](CO)C(N)=O)[C@@H](C)CC)C(C)C)C(=O)O [ID NO: 11]
EC50 [1]: 0.0243 nM
EC50 [2]: 0.00632 nM

CCCCCCCCCCCCCCCC(=O)N[C@@H](CCC(=O)NCCCC[C@H](NC(=O)[C@H](CCC(N)=O)NC(=O)[C@H](C)NC(=O)[C@@H](NC(=O)[C@H](CCCCN)NC(=O)[C@H](CC(=O)O)NC(=O)[C@H](CC(C)C)NC(=O)C1(NC(=O)[C@@H](NC(=O)[C@H](CO)NC(=O)[C@H](Cc2ccc(O)cc2)NC(=O)[C@H](CC(=O)O)NC(=O)[C@H](CO)NC(=O)[C@@H](NC(=O)[C@H](Cc2ccccc2)NC(=O)[C@@H](NC(=O)CNC(=O)[C@H](CCC(=O)O)NC(=O)C(C)(C)NC(=O)[C@@H](N)Cc2ccc(O)cc2)[C@@H](C)O)[C@@H](C)O)[C@@H](C)CC)CCC1)[C@@H](C)CC)C(=O)N[C@@H](C)C(=O)N[C@@H](Cc1ccccc1)C(=O)N[C@H](C(=O)N[C@@H](CCC(N)=O)C(=O)N[C@@H](Cc1c[nH]c2ccccc12)C(=O)N[C@@H](CC(C)C)C(=O)N[C@H](C(=O)N[C@@H](C)C(=O)NCC(=O)NCC(=O)N1CCC[C@H]1C(=O)N[C@@H](CO)C(=O)N[C@@H](CO)C(=O)NCC(=O)N[C@@H](C)C(=O)N1CCC[C@H]1C(=O)N1CCC[C@H]1C(=O)N1CCC[C@H]1C(=O)N[C@@H](CO)C(N)=O)[C@@H](C)CC)C(C)C)C(=O)O [ID NO: 19]
EC50 [1]: 0.0119 nM
EC50 [2]: 0.00791 nM

CCCCCCCCCCCCCCCC(=O)N[C@@H](CCC(=O)NCCCC[C@H](NC(=O)[C@H](CCC(N)=O)NC(=O)[C@H](C)NC(=O)[C@@H](NC(=O)[C@H](CCCCN)NC(=O)[C@H](CC(=O)O)NC(=O)[C@H](CC(C)C)NC(=O)[C@H](C)NC(=O)[C@@H](NC(=O)[C@H](CO)NC(=O)[C@H](Cc1ccc(O)cc1)NC(=O)[C@H](CC(=O)O)NC(=O)[C@H](CO)NC(=O)[C@@H](NC(=O)[C@H](Cc1ccccc1)NC(=O)[C@@H](NC(=O)CNC(=O)[C@H](CCC(=O)O)NC(=O)[C@H](C)NC(=O)[C@@H](N)Cc1ccc(O)cc1)[C@@H](C)O)[C@@H](C)O)[C@@H](C)CC)[C@@H](C)CC)C(=O)N[C@@H](C)C(=O)N[C@@H](Cc1ccccc1)C(=O)N[C@H](C(=O)N[C@@H](CCC(N)=O)C(=O)N[C@@H](Cc1c[nH]c2ccccc12)C(=O)N[C@@H](CC(C)C)C(=O)N[C@H](C(=O)N[C@@H](C)C(=O)NCC(=O)NCC(=O)N1CCC[C@H]1C(=O)N[C@@H](CO)C(=O)N[C@@H](CO)C(=O)NCC(=O)N[C@@H](C)C(=O)N1CCC[C@H]1C(=O)N1CCC[C@H]1C(=O)N1CCC[C@H]1C(=O)N[C@@H](CO)C(N)=O)[C@@H](C)CC)C(C)C)C(=O)O [ID NO: 15]
EC50 [1]: 0.0429 nM
EC50 [2]: 0.0532 nM
